In data set [1] the test system is RAS farnesylation in the v-ras cell line. Put plainly: In vivo ras farnesylation assay (inhibition of RAS farnesylation in the v-ras cell line). Type of data set: cell-based. To be noted: 4 h at 37° C. before labelling, additional 20 h, Table 2. As to the method:
In vivo ras farnesylation assay
The cell line used in this assay was the v-ras line, which expressed viral Ha-ms p21. The assay was performed essentially as described in DeClue, J. E. et. al., Cancer Research 51, 712-717, (1991). Cells in 10 cm dishes at 50-75% confluency were treated with the test compound (final concentration of solvent, methanol or dimethyl sulfoxide, was 0.1%). After 4 hours at 37° C., the cells were labelled in 3 ml methionine-free DMEM supplemented with 10% regular DMEM, 2% fetal bovine serum and 400 μCi[^35 S]methionine (1000 Ci/mmol). After an additional 20 hours, the cells were lysed in 1 ml lysis buffer (1% NP40/20 mM HEPES, pH 7.5/5 mM Mg/Cl2 /1mM DTT/10 μg/ml aprotinen/2 μg/ml leupeptin/2 μg/ml antipain/0.5 mM PMSF) and the lysates cleared by centrifugation at 100,000×g for 45 minutes. Aliquots of lysates containing equal numbers of acid-precipitable counts were bought to 1 ml with IP buffer (lysis buffer lacking DTT) and immunoprecipitated with the ras-specific monoclonal antibody Y13-259 (Furth, M. E. et. al., J. Virol. 43, 294-304, (1982)). Following a 2 hour antibody incubation at 4° C., 200 μl of a 25% suspension of protein A-Sepharose coated with rabbit anti rat IgG was added for 45 minutes. The immunoprecipitates were washed four times with IP was buffer ([…] HEPES, pH 7.5/1 mN EDTA/1% Triton X-100.0.5% deoxycholate/0.1%/SDS.0.1M NaCl) boiled in SDS-Page sample buffer and loaded on 13% acrylamide gels. When the dye front reached the bottom, the gel was fixed, soaked in Enlightening, dried and autoradiographed. The intensities of the bands corresponding to farnesylated and nonfarnesylated ras proteins were compared to determine the percent inhibition of farnesyl transfer to protein.

Data set [2] concerns the target recombinant human farnesyl transferase (Homo sapiens, UniProt P49354+P49356). Put plainly: In vitro inhibition of ras farnesyl transferase. The data set is classed as biochemical. To be noted: concentration of test compound giving 50% inhibition of FTase, Table 1, read-out: IC50 (inhibition of RAS farnesylation). As to the method:
In vitro inhibition of ras farnesyl transferase
The assay was conducted as described in Pompliano, et. al., Biochemistry 31, 3800 (1992) with the exception of utilizing recombinant human farnesyl transferase in place of the partially purified bovine enzyme described therein.
*(IC50 is the concentration of the test compound which gives 50%
inhibition of FTase under the described assay conditions.

Data set [3] in a line: Observation on the isolated TFA salt (hygroscopicity, stability in solution). The data set is classed as physicochemical.

Results on 19 compounds are retold here after patent publication US5686472A, “Inhibitors of farnesyl-protein transferase” (Merck & Co., Inc., priority 1993, dated 1997).

What is called IC50 is the point on the concentration scale where inhibition reaches its midpoint.

For the compound `CC[C@H](C)[C@@H](CO[C@@H](Cc1ccccc1)C(=O)N[C@@H](CCS(C)(=O)=O)C(=O)OC)NC[C@@H](N)CS` [2(S)-[2(S)-[2(R)-Amino-3-mercapto]propylamino-3(S)-methyl]pentyloxy-3-phenylpropionyl-methionine sulfone methyl ester], inhibition in data set [1] was half-maximal at 100 nM (IC50).
Turning to `CCC[C@H](OC[C@@H](NC[C@@H](N)CS)[C@@H](C)CC)C(=O)N[C@@H](CCO)C(=O)O` [2(S)-[2(S)-[2(R)-Amino-3-mercapto]propylamino-3(S)-methyl]-pentyloxy-pentanoyl-homoserine], the concentration for half-maximal inhibition (IC50) in data set [2] was determined as 7 nM.
Regarding `CC[C@H](C)[C@@H](CO[C@@H](Cc1ccccc1)C(=O)N[C@@H](CCS(C)(=O)=O)C(=O)OC(C)C)NC[C@@H](N)CS` [2(S)-[2(S)-[2(R)-Amino-3-mercapto]-propylamino-3(S)-methyl]pentyloxy-3-phenylpropionyl-methionine sulfone isopropyl ester], it took 100 nM to reach half-maximal inhibition in data set [1] (IC50).
As for `C=CC[C@H](OC[C@@H](NC[C@@H](N)CS)[C@@H](C)CC)C(=O)N[C@H]1CCOC1=O` [2(S)-[2(S)-[2(R)-Amino-3-mercapto]propylamino-3(S)-methyl]-pentyloxy-4-pentenoyl-homoserine lactone], the IC50 in data set [1] turned out to be 10000 nM.
On to `CC[C@H](C)[C@@H](CS[C@@](C)(Cc1ccccc1)C(=O)N[C@@H](CCO)C(=O)O)NC[C@@H](N)CS` [2(S)-[2(S)-[2(R)-Amino-3-mercapto]propylamino-3(S)-methyl]pentylthio-2-methyl-3-phenylpropionyl-homoserine], for which, in data set [2], the half-maximal inhibitory concentration (IC50) turned out to be 240 nM.
In data set [1], `CCC[C@H](OC[C@@H](NC[C@@H](N)CS)[C@@H](C)CC)C(=O)N[C@H]1CCOC1=O` [2(S)-[2(S)-[2(R)-Amino-3-mercapto]propylamino-3(S)-methyl]pentyloxy-pentanoyl-homoserine lactone] gave an IC50 of 10000 nM.
`CC[C@H](C)[C@@H](CO[C@@](C)(Cc1ccccc1)C(=O)N[C@@H](CCO)C(=O)O)NC[C@@H](N)CS` [2(S)-[2(S)-[2(R)-Amino-3-mercapto]propylamino-3(S)-methyl]pentyloxy-2-methyl-3-phenylpropionyl-homoserine]: in data set [2], the IC50 was 7 nM.
The same measure, in the same setting: to `CC[C@H](C)[C@@H](CO[C@H](C(=O)N[C@@H](CCO)C(=O)O)C(C)c1ccccc1)NC[C@@H](N)CS` (stereo partly drawn) [2(S)-[2(S)-[2(R)-Amino-3-mercapto]propylamino-3(S)-methyl]pentyloxy-3-phenylbutanoyl-homoserine] belongs 17 nM.
For the compound `CC[C@H](C)[C@@H](CO[C@@H](CC(C)C)C(=O)N[C@H]1CCOC1=O)NC[C@@H](N)CS` [2(S)-[2(S)-[2(R)-Amino-3-mercapto]propylamino-3(S)-methyl]pentyloxy4-methylpentanoyl-homoserine lactone], inhibition in data set [1] was half-maximal at 10000 nM (IC50).
In data set [1], `CC[C@H](C)[C@@H](CO[C@@H](Cc1ccccc1)C(=O)N[C@H]1CCOC1=O)NC[C@@H](N)CS` [2(S)-[2(S)-[2(R)-Amino-3-mercapto]propylamino-3(S)-methyl]pentyloxy-3-phenylpropionyl-homoserine lactone] yielded an IC50 of 2500 nM. In addition, the hygroscopicity result in data set [3] is “hygroscopic”. Further, the “stability (disulphide formation)” value in data set [3] (left in solution and exposed to air) is “prone to disulphide formation if left in solution and exposed to air”.
For `CC[C@H](C)[C@@H](CO[C@@H](Cc1ccccc1)C(=O)N[C@@H](CCSC)C(=O)O)NC[C@@H](N)CS` [2(S)-[2(S)-[2(R)-Amino-3-mercapto]propylamino-3(S)-methyl]pentyloxy-3-phenylpropionyl-methionine], in data set [2], the IC50 stood at 4 nM.
Take `CC[C@H](C)[C@@H](CO[C@@](C)(Cc1ccccc1)C(=O)N[C@H]1CCOC1=O)NC[C@@H](N)CS` [2(S)-[2(S)-[2(R)-Amino-3-mercapto]propylamino-3(S)-methyl]pentyloxy-2-methyl-3-phenylpropionyl-homoserine lactone]: the midpoint of inhibition in data set [1], the IC50, lay at 50000 nM.
For the compound `CC[C@H](C)[C@@H](CS(=O)(=O)[C@@](C)(Cc1ccccc1)C(=O)N[C@@H](CCO)C(=O)O)NC[C@@H](N)CS` [2(S)-[2(S)-[2(R)-Amino-3-mercapto]propylamino-3(S)-methyl]pentyl-sulfonyl-2-methyl-3-phenylpropionyl-homo-serine], in data set [2], the IC50 was 980 nM.
Still for that read-out and setting: to `C=CC[C@H](OC[C@@H](NC[C@@H](N)CS)[C@@H](C)CC)C(=O)N[C@@H](CCO)C(=O)O` belongs 18 nM.
With `CC[C@H](C)[C@@H](CO[C@@H](Cc1ccccc1)C(=O)N[C@@H](CCSC)C(=O)OC)NC[C@@H](N)CS` [2(S)-[2(S)-[2(R)-Amino-3-mercapto]propylamino-3(S)-methyl]pentyloxy-3-phenylpropionyl-methionine methyl ester], the half-inhibitory concentration (IC50) in data set [1] came out at 100 nM.
As for `CC[C@H](C)[C@@H](CO[C@H](C(=O)N[C@@H](CCO)C(=O)O)C(C)C)NC[C@@H](N)CS` [2(S)-[2(S)-[2(R)-Amino-3-mercapto]propylamino-3(S)-methyl]pentyloxy-3-methylbutanoyl-homoserine], in data set [2], the IC50 is 1.4 nM.
Take `CC[C@H](C)[C@@H](CO[C@@H](Cc1ccccc1)C(=O)N[C@@H](CCO)C(=O)O)NC[C@@H](N)CS` [2(S)-[2(S)-[2(R)-Amino-3-mercapto]propylamino-3(S)-methyl]pentyloxy-3-phenylpropionyl-homoserine]: the half-inhibitory concentration (IC50) in data set [2] stood at 5 nM.
As to `CC[C@H](C)[C@@H](CO[C@@H](CC(C)C)C(=O)N[C@@H](CCO)C(=O)O)NC[C@@H](N)CS` [2(S)-[2(S)-[2(R)-Amino-3-mercapto]propylamino-3(S)-methyl]pentyloxy-4-methylpentanoyl-homoserine], the IC50 in data set [2] was 19 nM.
Still for that read-out and setting: to `CC[C@H](C)[C@@H](CO[C@@H](Cc1ccccc1)C(=O)N[C@@H](CCS(C)(=O)=O)C(=O)O)NC[C@@H](N)CS` [2(S)-[2(S)-[2(R)-Amino-3-mercapto]propylamino-3(S)-methyl]-pentyloxy-3-phenylpropionyl-methionine sulfone] belongs 2.2 nM.
